Data: EP0942911B1, “BENZOPYRANOPYRROLE AND BENZOPYRANOPYRIDINE ALPHA-1 ADRENERGIC COMPOUNDS” (Abbott Laboratories, priority 1996, dated 1998)
Where a name gives a salt, the structure may show the parent alone.

Assays:
α-1B adrenoreceptor = target: T1, α-1B adrenoreceptor (Rattus norvegicus, UniProt P15823); test: cell-based; settings: phenylephrine-induced contraction; Schild plot; read-out: In Vitro Characterization (pA2) Rat Spleen (converted)
T1 construct: from tissue; host or cells: rat spleen
T1 sequence (P15823 1-515): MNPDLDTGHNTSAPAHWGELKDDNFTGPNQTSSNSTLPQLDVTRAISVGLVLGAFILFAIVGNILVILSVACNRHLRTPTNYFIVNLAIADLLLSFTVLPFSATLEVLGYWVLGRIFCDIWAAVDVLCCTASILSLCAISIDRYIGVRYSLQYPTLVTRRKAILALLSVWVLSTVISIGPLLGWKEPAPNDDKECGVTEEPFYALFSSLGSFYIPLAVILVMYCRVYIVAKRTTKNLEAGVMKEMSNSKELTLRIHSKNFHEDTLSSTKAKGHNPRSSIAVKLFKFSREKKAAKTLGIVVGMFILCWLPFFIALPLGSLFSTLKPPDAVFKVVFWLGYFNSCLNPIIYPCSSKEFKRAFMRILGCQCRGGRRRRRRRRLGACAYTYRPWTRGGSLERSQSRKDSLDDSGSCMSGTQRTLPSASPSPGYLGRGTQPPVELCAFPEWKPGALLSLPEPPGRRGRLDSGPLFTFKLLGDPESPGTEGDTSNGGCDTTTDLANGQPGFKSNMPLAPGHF
How it was run: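 Phenylephrine dose-response curves for contraction were repeated against increasing test-agent concentrations. pA2 was derived by Schild plot [[…] vs log molarity of test agent].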

α-1A adrenoreceptor = test: Functional antagonism: inhibition of PE-induced contraction of canine prostate strips (Schild plot); type: cell-based; settings: phenylephrine-induced contraction
Excerpt: Canine prostate strips were used in vitro as previously described (Hieble, J.P., Boyce, A.J. and Caine, M., Fed. Proc., 45: 2609-2614 (1986)), to determine antagonist potencies against phenylephrine-induced contractions.
Functional assays indicative of pharmacologically defined α-1 adrenoreceptors were used to further characterize compounds. Inhibition of phenylephrine (PE)-induced contraction of canine prostate smooth muscle can be correlated with α-1A adrenoreceptor activation. […] For each of these models, agonist dose response curves were repeated against increasing concentrations of test agent to derive a Schild plot [log ([…]) against log (molarity of test agent)] to determine the pA2.

Compound | Kb (α-1B adrenoreceptor) [µM] | In Vitro Characterization (pA2) Dog Prostate (α-1A adrenoreceptor)
COc1ccc2sc3c(=O)n(CCCCN4C[C@H]5COc6cccc(OC)c6[C@@H]5C4)c(=O)[nH]c3c2n1 [Example 26, 3-[4-((3aS,9bR)-trans-9-Methoxy-1,2,3,3a,4,9b-hexahydro-[1]-benzopyrano[3,4-c]pyrrol-2-yl)butyl]-8-methoxy-pyrido[2',3':4,5]thieno[3,2-d]pyrimidine-2,4(1H,3H)-dione hydrochloride] | 0.00316 | 9.15
COc1cccc2c1[C@@H]1CN(CCCCn3c(=O)[nH]c4c(sc5cccnc54)c3=O)C[C@@H]1CO2 [Example 1, 3-[4-((3aR,9bR)-cis-9-Methoxy-1,2,3,3a,4,9b-hexahydro-[1]-benzopyrano[3,4-c]pyrrol-2-yl)butyl]-pyrido[2',3':4,5]thieno[3,2-d]pyrimidine-2,4(1H,3H)-dione hydrochloride] |  | 8.69
COc1cccc2c1[C@H]1CN(CCCCn3c(=O)[nH]c4c(sc5nccnc54)c3=O)C[C@@H]1CO2.Cl.Cl (racemic) [Example 74, 3-[4-((±)-trans-9-Methoxy-1,2,3,3a,4,9b-hexahydro-[1]-benzopyrano[3,4-c]pyrrol-2-yl)butyl]-pyrazino[2',3':4,5]thieno[3,2-d]pyrimidine-2,4(1H,3H)-dione dihydrochloride] | 0.00646 | 9.03
COc1ccc2c(c1)OC[C@H]1CN(CCCn3c(=O)[nH]c4c(sc5ccccc54)c3=O)C[C@@H]21.Cl (racemic) [Example 64, 3-[3-((±)-cis-7-Methoxy-1,2,3,3a,4,9b-hexahydro-[1]-benzopyrano[3,4-c]pyrrol-2-yl)propyl]-[1]benzthieno[3,2-d]pyrimidine-2,4(1H,3H)-dione hydrochloride] |  | 6.92
COc1cccc2c1[C@H]1CN(CCCCn3c(=O)[nH]c4c(sc5cccnc54)c3=O)C[C@H]1CO2 [Example 2, 3-[4-((3aS,9bS)-cis-9-Methoxy-1,2,3,3a,4,9b-hexahydro-[1]-benzopyrano[3,4-c]pyrrol-2-yl)butyl]-pyrido[2',3':4,5]thieno[3,2-d]pyrimidine-2,4(1H,3H)-dione hydrochloride] |  | 7.95
COc1ccc2c(c1)OC[C@H]1CN(CCn3c(=O)[nH]c4c(sc5ccccc54)c3=O)C[C@@H]21.Cl (racemic) [Example 63, 3-[2-((±)-cis-7-Methoxy-1,2,3,3a,4,9b-hexahydro-[1]-benzopyrano[3,4-c]pyrrol-2-yl)ethyl]-[1]benzthieno[3,2-d]pyrimidine-2,4(1H,3H)-dione hydrochloride] |  | 6.65
COc1cccc2c1OC[C@H]1CN(CCn3c(=O)[nH]c4c(sc5ccccc54)c3=O)C[C@@H]21.Cl (racemic) [Example 67, 3-[2-((±)-cis-6-Methoxy-1,2,3,3a,4,9b-hexahydro-[1]-benzopyrano[3,4-c]pyrrol-2-yl)ethyl]-[1]benzthieno[3,2-d]pyrimidine-2,4(1H,3H)-dione hydrochloride] | 0.148 | 7.33
COc1cccc2c1[C@@H]1CN(CCCCn3c(=O)[nH]c4c(sc5cccnc54)c3=O)C[C@H]1CO2 [Example 3, 3-[4-((3aS,9bR)-trans-9-Methoxy-1,2,3,3a,4,9b-hexahydro-[1]-benzopyrano[3,4-c]pyrrol-2-yl)butyl]-pyrido[2',3':4,5]thieno[3,2-d]pyrimidine-2,4(1H,3H)-dione hydrochloride] |  | 9.43
COc1cccc2c1[C@@H]1CCN(CCCCn3c(=O)[nH]c4c(sc5cccnc54)c3=O)C[C@H]1CO2 [Example 95, 3-[4-((4aS,10bR)-trans-10-Methoxy-1,3,4,4a,5,10b-hexahydro-2H-[1]-benzopyrano[3,4-c]pyrido-3-yl)butyl]-pyrido[2',3':4,5]thieno[3,2-d]pyrimidine-2.4(1H,3H)-dione dihydrochloride] | 0.0191 | 8.58
COc1cccc2c1[C@@H]1CCN(CCCCn3c(=O)[nH]c4c(sc5ncccc54)c3=O)C[C@H]1CO2 (racemic) [Example 85, 3-[4-((±)-trans-10-Methoxy-1,3,4,4a,5,10b-hexahydro-2H-[1]-benzopyrano[3,4-c]pyrido-3-yl)butyl]-pyrido[3',2':4,5]thieno[3,2-d]pyrimidine-2,4(1H,3H)-dione dihydrochloride] |  | 8.6
COc1cccc2c1[C@@H]1CN(CCCCn3c(=O)[nH]c4c(sc5ncc(-c6ccccc6)nc54)c3=O)C[C@@H]1CO2 [Example 39, 3-[4-((3aR,9bR)-cis-9-Methoxy-1,2,3,3a,4,9b-hexahydro-[1]-benzopyrano[3,4-c]pyrrol-2-yl)butyl]-8-phenyl-pyrazino[2',3':4,5]thieno[3,2-d]pyrimidine-2,4(1H,3H)-dione hydrochloride] | 0.148 | 8.52
COc1cccc2c1OC[C@H]1CN(CCCn3c(=O)[nH]c4c(sc5ccccc54)c3=O)C[C@@H]21.Cl (racemic) [Example 68, 3-[3-((±)-cis-6-Methoxy-1,2,3,3a,4,9b-hexahydro-[1]-benzopyrano[3,4-c]pyrrol-2-yl)propyl]-[1]benzthieno[3,2-d]pyrimidine-2,4(1H,3H)-dione hydrochloride] |  | 7.02
COc1cccc2c1[C@@H]1CN(CCn3c(=O)[nH]c4c(sc5ccccc54)c3=O)C[C@@H]1CO2.Cl (racemic) [Example 65, 3-[2-((±)-cis-9-Methoxy-1,2,3,3a,4,9b-hexahydro-[1]-benzopyrano[3,4-c]pyrrol-2-yl)ethyl]-[1]benzthieno[3,2-d]pyrimidine-2,4(1H,3H)-dione hydrochloride] |  | 7.76
COc1cccc2c1[C@@H]1CN(CCCCn3c(=O)[nH]c4c(sc5nc(-c6ccccc6)cnc54)c3=O)C[C@@H]1CO2 [Example 40, 3-[4-((3aR,9bR)-cis-9-Methoxy-1,2,3,3a,4,9b-hexahydro-[1]-benzopyrano[3,4-c]pyrrol-2-yl)butyl]-7-phenyl-pyrazino[2',3':4,5]thieno[3,2-d]pyrimidine-2,4(1H,3H)-dione hydrochloride] | 0.759 | 
COc1cccc2c1[C@@H]1CN(CCCCn3c(=O)[nH]c4c(sc5nc(C)ccc54)c3=O)C[C@@H]1CO2 [Example 35, 3-[4-((3aR,9bR)-cis-9-Methoxy-1,2,3,3a,4,9b-hexahydro-[1]-benzopyrano[3,4-c]pyrrol-2-yl)butyl]-7-methyl-pyrido[3',2':4,5]thieno[3,2-d]pyrimidine-2,4(1H,3H)-dione hydrochloride] | 0.011 | 
COc1cccc2c1[C@@H]1CN(CCCCn3c(=O)[nH]c4c(sc5ccc(Cl)nc54)c3=O)C[C@H]1CO2 [Example 25, 3-[4-((3aS,9bR)-trans-9-Methoxy-1,2,3,3a,4,9b-hexahydro-[1]-benzopyrano[3,4-c]pyrrol-2-yl)butyl]-8-chloro-pyrido[2',3':4,5]thieno[3,2-d]pyrimidine-2,4(1H,3H)-dione dihydrochloride] | 0.002 | 
Cl.O=c1[nH]c2c(sc3ccccc32)c(=O)n1CCN1C[C@@H]2COc3ccccc3[C@@H]2C1 (racemic) [Example 69, 3-[2-((±)-cis-1,2,3,3a,4,9b-hexahydro-[1]-benzopyrano[3,4-c]pyrrol-2-yl)ethyl]-[1]benzthieno[3,2-d]pyrimidine-2,4(1H,3H)-dione hydrochloride] |  | 6.91
COc1cccc2c1[C@@H]1CN(CCCCn3c(=O)[nH]c4c(sc5cc(Cl)cnc54)c3=O)C[C@@H]1CO2 [Example 38, 3-[4-((3aR,9bR)-cis-9-Methoxy-1,2,3,3a,4,9b-hexahydro-[1]-benzopyrano[3,4-c]pyrrol-2-yl)butyl]-7-chloro-pyrido[2',3':4,5]thieno[3,2-d]pyrimidine-2,4(1H,3H)-dione hydrochloride] | 0.0195 | 
COc1cnc2sc3c(=O)n(CCCCN4C[C@@H]5COc6cccc(OC)c6[C@@H]5C4)c(=O)[nH]c3c2n1 [Example 31, 3-[4-((3aR,9bR)-cis-9-Methoxy-1,2,3,3a,4,9b-hexahydro-[1]-benzopyrano[3,4-c]pyrrol-2-yl)butyl]-8-methoxy-pyrazino[2',3':4,5]thieno[3,2-d]pyrimidine-2,4(1H,3H)-dione hydrochloride] | 0.0141 | 
COc1cccc2c1[C@@H]1CN(CCCn3c(=O)[nH]c4c(sc5ccccc54)c3=O)C[C@@H]1CO2.Cl (racemic) [Example 66, 3-[3-((±)-cis-9-Methoxy-1,2,3,3a,4,9b-hexahydro-[1]-benzopyrano[3,4-c]pyrrol-2-yl)propyl]-[1]benzthieno[3,2-d]pyrimidine-2,4(1H,3H)-dione hydrochloride] |  | 7.48
